In PubChem BioAssay AID1845207 (Molecular Pharmacology Branch, DTP, NCI, 2023):
Where “and” joins values, the source holds several entries; their conditions need not be identical. Identical values can stand only once.

Tested on: NCI-H1876 tumor spheroid viability
Experiment: Anticancer human tumor NCI-H1876 cell line growth inhibition;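 also: spheroids exposed to compounds for seven days before the viability read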;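 as to viability, T/C: percent of DMSO vehicle control viability so 100% = vehicle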
Conditions: spheroids with HUVEC and MSC; for viability, T/C: stronger effect = lower value
In short: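 Single agents and combinations were tested on spheroids built from tumor cells plus HUVEC and hMSC, at half-log dilutions starting at or near clinical Cmax, else 10 microM; final DMSO 0.25% (v/v).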

**Q.** What does the source list for `CC(C)n1c(=O)n(C)c2cnc3cc(F)c(-c4ccc(OCCCN5CCCCC5)nc4)cc3c21` + CC[C@@]1(O)C(=O)OCc2c1cc1n(c2=O)Cc2cc3c(CN(C)C)c(O)ccc3nc2-1?
**A.** IC50 (curve of first compound, second compound 0.003 µM): < 0.0316 µM; IC50 (curve of first compound, second compound 0.00949 µM): < 0.0316 µM; IC50 (curve of first compound, second compound 0.03 µM): < 0.0316 µM; IC50 (curve of first compound, second compound 0.0949 µM): < 0.0316 µM; IC50 (curve of first compound, second compound 0.3 µM): < 0.0316 µM; viability, T/C (second compound 0.003 µM, first compound 0.0316 µM): 25.1%; viability, T/C (second compound 0.003 µM, first compound 0.1 µM): 25.5%; viability, T/C (second compound 0.003 µM, first compound 0.316 µM): 34.6%; viability, T/C (second compound 0.003 µM, first compound 1 µM): 45.5%; viability, T/C (second compound 0.003 µM, first compound 3.16 µM): 44.1%; viability, T/C (second compound 0.003 µM, first compound 10 µM): 28.1%; viability, T/C (second compound 0.00949 µM, first compound 0.0316 µM): 5.02%; viability, T/C (second compound 0.00949 µM, first compound 0.1 µM): 4.95%; viability, T/C (second compound 0.00949 µM, first compound 0.316 µM): 5.93%; viability, T/C (second compound 0.00949 µM, first compound 1 µM): 7.51%; viability, T/C (second compound 0.00949 µM, first compound 3.16 µM): 10.2%; viability, T/C (second compound 0.00949 µM, first compound 10 µM): 11.6%; viability, T/C (second compound 0.03 µM, first compound 0.0316 µM): 2.64%; viability, T/C (second compound 0.03 µM, first compound 0.1 µM): 2.9%; viability, T/C (second compound 0.03 µM, first compound 0.316 µM): 2.81%; viability, T/C (second compound 0.03 µM, first compound 1 µM): 3.34%; viability, T/C (second compound 0.03 µM, first compound 3.16 µM): 3.91%; viability, T/C (second compound 0.03 µM, first compound 10 µM): 4.32%; viability, T/C (second compound 0.0949 µM, first compound 0.0316 µM): 2.03%; viability, T/C (second compound 0.0949 µM, first compound 0.1 µM): 2.07%; viability, T/C (second compound 0.0949 µM, first compound 0.316 µM): 2.33%; viability, T/C (second compound 0.0949 µM, first compound 1 µM): 2.86%; viability, T/C (second compound 0.0949 µM, first compound 3.16 µM): 2.99%; viability, T/C (second compound 0.0949 µM, first compound 10 µM): 3.42%; viability, T/C (second compound 0.3 µM, first compound 0.0316 µM): 1.97%; viability, T/C (second compound 0.3 µM, first compound 0.1 µM): 2.19%; viability, T/C (second compound 0.3 µM, first compound 0.316 µM): 1.74%; viability, T/C (second compound 0.3 µM, first compound 1 µM): 2.16%; viability, T/C (second compound 0.3 µM, first compound 3.16 µM): 2.86%; viability, T/C (second compound 0.3 µM, first compound 10 µM): 2.71%

**Q.** `O=C(c1cc(Cc2n[nH]c(=O)c3ccccc23)ccc1F)N1CCN(C(=O)C2CC2)CC1` was tested. Which viability, T/C (compound 0.0949 µM) did it give?
**A.** 87% and 103% and 107%

**Q.** And the viability, T/C (compound 0.3 µM)?
**A.** 76% and 89.7% and 106%

**Q.** And the viability, T/C (compound 0.949 µM)?
**A.** 84.4% and 76.2% and 100%

**Q.** What about the viability, T/C (compound 3 µM) of the same molecule?
**A.** 72.1% and 55.2% and 76.5%

**Q.** And the viability, T/C (compound 9.49 µM)?
**A.** 64% and 33.9% and 18.2%

**Q.** What about the viability, T/C (compound 30 µM) of the same molecule?
**A.** 66.7% and 19.1% and 12.6%

**Q.** What about the IC50 (curve of compound) of the same molecule?
**A.** > 30 µM and 3.96 µM and 5.07 µM

**Q.** How did the IC50 (curve of first compound, second compound 1 µM) turn out when `[2H]c1nc(C)nc([2H])c1-c1cc(NC[C@@H](C)c2cccc3c(C(=O)NC)ccnc23)ncn1` + Cn1nnc2c(C(N)=O)ncn2c1=O was run?
**A.** > 10 µM

**Q.** What about the IC50 (curve of first compound, second compound 3.16 µM) of the same molecule?
**A.** > 10 µM

**Q.** And the IC50 (curve of first compound, second compound 10 µM)?
**A.** > 10 µM

**Q.** What about the IC50 (curve of first compound, second compound 31.6 µM) of the same molecule?
**A.** > 10 µM

**Q.** And the IC50 (curve of first compound, second compound 100 µM)?
**A.** > 10 µM

**Q.** And the viability, T/C (second compound 1 µM, first compound 0.0316 µM)?
**A.** 98.1%

**Q.** What about the viability, T/C (second compound 1 µM, first compound 0.1 µM) of the same molecule?
**A.** 98.7%

**Q.** What about the viability, T/C (second compound 1 µM, first compound 0.316 µM) of the same molecule?
**A.** 101%

**Q.** And the viability, T/C (second compound 1 µM, first compound 1 µM)?
**A.** 101%

**Q.** And the viability, T/C (second compound 1 µM, first compound 3.16 µM)?
**A.** 86.8%

**Q.** And the viability, T/C (second compound 1 µM, first compound 10 µM)?
**A.** 67.6%

**Q.** What about the viability, T/C (second compound 3.16 µM, first compound 0.0316 µM) of the same molecule?
**A.** 106%

**Q.** And the viability, T/C (second compound 3.16 µM, first compound 0.1 µM)?
**A.** 104%

**Q.** What about the viability, T/C (second compound 3.16 µM, first compound 0.316 µM) of the same molecule?
**A.** 95.4%

**Q.** And the viability, T/C (second compound 3.16 µM, first compound 1 µM)?
**A.** 106%

**Q.** And the viability, T/C (second compound 3.16 µM, first compound 3.16 µM)?
**A.** 88.8%

**Q.** What about the viability, T/C (second compound 3.16 µM, first compound 10 µM) of the same molecule?
**A.** 77.2%

**Q.** What about the viability, T/C (second compound 10 µM, first compound 0.0316 µM) of the same molecule?
**A.** 104%

**Q.** And the viability, T/C (second compound 10 µM, first compound 0.1 µM)?
**A.** 103%

**Q.** What about the viability, T/C (second compound 10 µM, first compound 0.316 µM) of the same molecule?
**A.** 106%

**Q.** And the viability, T/C (second compound 10 µM, first compound 1 µM)?
**A.** 101%

**Q.** And the viability, T/C (second compound 10 µM, first compound 3.16 µM)?
**A.** 89.3%

**Q.** What about the viability, T/C (second compound 10 µM, first compound 10 µM) of the same molecule?
**A.** 71.5%

**Q.** And the viability, T/C (second compound 31.6 µM, first compound 0.0316 µM)?
**A.** 91.8%

**Q.** And the viability, T/C (second compound 31.6 µM, first compound 0.1 µM)?
**A.** 55.8%

**Q.** What about the viability, T/C (second compound 31.6 µM, first compound 0.316 µM) of the same molecule?
**A.** 91.7%

**Q.** What about the viability, T/C (second compound 31.6 µM, first compound 1 µM) of the same molecule?
**A.** 95.5%

**Q.** And the viability, T/C (second compound 31.6 µM, first compound 3.16 µM)?
**A.** 89.2%

**Q.** What about the viability, T/C (second compound 31.6 µM, first compound 10 µM) of the same molecule?
**A.** 50.1%

**Q.** What about the viability, T/C (second compound 100 µM, first compound 0.0316 µM) of the same molecule?
**A.** 69.5%

**Q.** What about the viability, T/C (second compound 100 µM, first compound 0.1 µM) of the same molecule?
**A.** 76.9%

**Q.** And the viability, T/C (second compound 100 µM, first compound 0.316 µM)?
**A.** 70.4%

**Q.** What about the viability, T/C (second compound 100 µM, first compound 1 µM) of the same molecule?
**A.** 66.2%

**Q.** What about the viability, T/C (second compound 100 µM, first compound 3.16 µM) of the same molecule?
**A.** 65.1%

**Q.** What about the viability, T/C (second compound 100 µM, first compound 10 µM) of the same molecule?
**A.** 58.3%
